Measured values published in paper PMC8494682 (Applied Microbiology and Biotechnology, 2021).
Read-outs that look alike come from different tables or passages of the source.

Tests used:
[1] = target: T1, pantothenate kinase (PanK, Cab1) (Saccharomyces cerevisiae, UniProt Q04430); test: radiometric PanK assay with D-[[…]-14C]pantothenate, partially purified enzyme; assay type: biochemical
T1 construct: wild-type Cab1 expressed from pSBS5 in yeast strain JS91.14-24, partially purified on DEAE sepharose
T1 sequence (Q04430 1-367): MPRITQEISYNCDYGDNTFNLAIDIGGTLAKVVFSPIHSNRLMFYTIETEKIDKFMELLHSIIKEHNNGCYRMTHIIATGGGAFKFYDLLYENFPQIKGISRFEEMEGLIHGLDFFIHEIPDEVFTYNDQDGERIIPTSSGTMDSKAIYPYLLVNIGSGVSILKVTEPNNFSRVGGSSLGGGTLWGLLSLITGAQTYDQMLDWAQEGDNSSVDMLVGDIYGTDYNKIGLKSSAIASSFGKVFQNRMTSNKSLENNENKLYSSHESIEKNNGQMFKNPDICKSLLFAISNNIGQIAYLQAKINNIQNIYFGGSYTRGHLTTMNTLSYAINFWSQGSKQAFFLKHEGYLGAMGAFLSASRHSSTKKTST

[2] = target: T2, pantothenate kinase PanK3 (murine) (Mus musculus, UniProt Q8R2W9); test: as above; assay type: biochemical
T2 construct: murine wild-type PanK3 expressed from pJO73 in yeast strain JS91.14-24, partially purified on DEAE sepharose
T2 sequence (Q8R2W9 1-370): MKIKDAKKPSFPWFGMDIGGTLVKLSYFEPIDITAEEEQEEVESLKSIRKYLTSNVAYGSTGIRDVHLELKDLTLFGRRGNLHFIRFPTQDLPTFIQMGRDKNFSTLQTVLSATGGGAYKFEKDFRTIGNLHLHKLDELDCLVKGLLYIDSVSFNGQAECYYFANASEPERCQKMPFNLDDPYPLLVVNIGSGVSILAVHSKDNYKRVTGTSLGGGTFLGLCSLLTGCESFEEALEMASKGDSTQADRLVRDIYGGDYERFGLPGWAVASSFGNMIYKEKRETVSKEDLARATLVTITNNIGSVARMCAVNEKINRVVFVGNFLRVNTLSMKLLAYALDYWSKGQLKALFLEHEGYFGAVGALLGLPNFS

| SMILES | IC50 [1] [µM] | IC50 ([1]; read-out: IC50) [µM] | IC50 [2] [µM] |
| --- | --- | --- | --- |
| CC(C)(COP(=O)(O)OP(=O)(O)OC[C@H]1O[C@@H](n2cnc3c(N)ncnc32)[C@H](O)[C@@H]1OP(=O)(O)O)[C@@H](O)C(=O)NCCC(=O)NCCSC(=O)CC(=O)O [malonyl-CoA] | 812 | – | – |
| CC(C)(COP(=O)(O)OP(=O)(O)OC[C@H]1O[C@@H](n2cnc3c(N)ncnc32)[C@H](O)[C@@H]1OP(=O)(O)O)[C@@H](O)C(=O)NCCC(=O)NCCS [Coenzyme A] | – | 283 | – |
| CCCCCCCCCCCCCCCC(=O)SCCNC(=O)CCNC(=O)[C@H](O)C(C)(C)COP(=O)(O)OP(=O)(O)OC[C@H]1O[C@@H](n2cnc3c(N)ncnc32)[C@H](O)[C@@H]1OP(=O)(O)O [palmitoyl-CoA] | – | 891 | – |
| CC(=O)SCCNC(=O)CCNC(=O)[C@H](O)C(C)(C)COP(=O)(O)OP(=O)(O)OC[C@H]1O[C@@H](n2cnc3c(N)ncnc32)[C@H](O)[C@@H]1OP(=O)(O)O [acetyl-CoA] | 36 | – | 1 |
